{"source": "patent US5302526A", "about": "“Recombinant DNA enclosed amphiphilic leader sequences for the production and purification of fusion proteins” (Creative BioMolecules, Inc., priority 1993, dated 1994)", "assay": "HPLC partitioning of synthetic helix dimers between aqueous mobile phase and nonpolar C-18 stationary phase as a function of pH", "assay_type": "physicochemical", "experimental": "To determine whether the properties of the synthetic helices corresponded to their expected properties, each was tested on an HPLC column using a nonpolar (C-18) stationary phase. A sample of synthetic peptide solution was then injected, and the elution time (time to emerge from the bottom of the column) measured. The void time for the column was measured by injecting a small charged molecule such as citrate or acetate. The fraction of the sample solubilized in the aqueous, mobile phase (versus that bound to the hydrophobic, immobile phase) is determined by the void time divided by the sample elution time. A sample emerging in the void time is completely soluble in the mobile phase, whereas if it emerges in two void times it is half solubilized in the mobile phase and half bound to the stationary phase. By this procedure the affinity of each of the synthetic peptides for the aqueous, mobile phase, relative to the hydrophobic, stationary phase, could be measured as a function of pH. The HPLC column was run isocratically (constant eluent) using one of several different buffer systems. […] For that reason a value of 13% was used for all the buffer systems in that at that concentration the elution time for the peptides was determined to be on the order of 2 to 20 times the void time. […] The column was allowed to equilibrate as judged by 214 nm absorbance baseline stability. […]", "note": "Where two headings read alike, the source gives them in different places. Ends that are not written are not given here.", "data": [{"sequence": "AHNLNEAAHNLNEA [Helix P-81, (Ala--His--Asn--Leu--Asn--Glu--Ala)2]", "values": [{"measurement": "fraction of the helix partitioned into the aqueous mobile phase (partition coefficient) as a function of pH", "setting": "C-18 HPLC, isocratic, 13% acetonitrile, trend with increasing pH", "value": "fraction of the helix partitioning into the mobile phase increases as pH increases"}]}, {"sequence": "AKNLNEAAKNLNEA [Helix P-72, (Ala--Lys--Asn--Leu--Asn--Glu--Ala)2]", "values": [{"measurement": "fraction of the helix partitioned into the aqueous mobile phase (partition coefficient) as a function of pH", "value": "as the pH increased the peptide partitioned increasingly into the hydrophobic (stationary) phase"}]}]}
